# Assay results as given in patent US10604739B2, “Cardiomyocyte production” (Cellular Dynamics International, Inc., priority 2009, dated 2020).
# Tests used:
# Format in all cases: cell-based, human
# iPS6.1 cells = assay: iPS6.1 Growth Factor Titration #1; conditions: HGF 0, 5, 20, 50, 150 ng/mL
# Procedure: (§1) Aggregate formation and cardiac induction procedures of those iPS cells at different initial densities were performed essentially the same as described in Examples 4 except different concentrations of human HGF (hHGF) and FGF were applied to Aggregate Formation Medium, Aggregate Transition Medium and Cardiac Induction Medium.
# Conditions without FGF had virtually no surviving aggregates and no measurable cardiomyocytes (FIGS. 29A-B). On the other hand, all conditions with FGF yielded cardiomyocytes independent of HGF concentration (FIGS. 29A-B).
# H9-TGZ cells [1] = assay: H9-TGZ Growth Factor Titration #2 (repeat); conditions: FIGS. 32A-C
# Procedure: as §1
# Due to the issues with aggregate formation noted above, the H9-TGZ growth factor titration experiment was repeated. […] However, it is important to note that despite the overall poor performance of the cultures, the usual and expected decrease in performance at low FGF level was still discernable (FIGS. 32A-C).
# H9-TGZ cells [2] = assay: H9-TGZ Growth Factor Titration #2; conditions: HGF 0, 20, 50
# Procedure: as §1
# While the iPS6.1 optimization was underway, a separate series of experiments was conducted to optimize the growth factor concentrations for the H9-TGZ cells. […] Therefore, the FGF range tested was higher than that in the recent iPS6.1 experiments. This experiment confirmed that optimum cardiomyocyte production requires 100-150 ng/mL FGF with the H9-TGZ cells (FIGS. 31A-C).
substance,measurement,setting,value
"HGF: human recombinant HGF (hepatic growth factor), R&D systems",Trend in cardiomyocyte yield or iPS:CM ratio across HGF concentrations,iPS6.1 cells,no consistent trend in cardiomyocyte yield or iPS:CM ratio
same,Trend of culture performance across HGF concentrations,H9-TGZ cells [1],no observable trend of culture performance
same,Trend in process efficiency across different HGF concentrations,H9-TGZ cells [2],No trend was observed in process efficiency
